Data set [1] relates to GL261/wt target cells.
In data set [2] the test system is GL261/vIII target cells. Kind of data set: Cytotoxic T cell killing assay, T cells from vaccinated mice. The settings on record: 50:1 effector to target ratio.
In data set [3] the test system is GL261/vIII. Description: Intracranial glioma model GL261/vIII, peptide vaccination. Type of data set: in vivo. The settings on record: candidate peptides as individual vaccines. The text has this: Y6-pepvIII is effective in an intracranial glioma model. Because of its significant effect on survival in the EGFRvIII subcutaneous tumor model, we selected Y6-pepvIII for in-depth analysis. First, we tested this vaccine in a model that more accurately represented human gliomas. We utilized the commonly employed murine glioma 261 (GL261) intracranial tumor model (30) which was transfected with the EGFRvIII cDNA to yield a line with high expression, GL261/vIII. We explored intracranial injection protocols that would lead to reproducible survival curves and identified conditions where 90% of the animals survived 23-29 days. To compare vaccine efficacy, mice received either Montanide (ISA51) alone, 100 ug of KLH with Montanide, 100 ug of KLH conjugated to pepvIII or Y6-pepvIII in Montanide following the vaccination schedule outlined in FIG. 2A. While KLH treatment had no measurable impact on survival, vaccination with the pepvIII induced a modest but statistically significant 23% increase in survival vs. control mice (FIG. 2B; median survival: Control=26.0 days, KLH=27 days, pepvIII=32 days, p<0.0001).
Intracranial model. Six to 8-week old C57BL/6J mice (Jackson Laboratories, Bar Harbor, ME), had gliomas established by stereotactically injecting 10,000 GL261/vIII […] CT2A/vIII cells into the left striatum (2 mm posterior to the coronal suture and 2 mm lateral to the sagittal suture) on day 0 of the experimental process as previously described. Briefly, mice were anesthetized with isoflurane (4%) and placed in the stereotactic frame. An incision was made, and a burr hole was drilled over the striatum. GL261/vIII or CT2A/vIII cells were injected at the above stated coordinates using a Hamilton Microsyringe controlled by an automated micro-pump injection system. Mice were assigned to treatment groups randomly and tumor progression was monitored by bioluminescent signal as detected by the IVIS imaging system (Caliper Life Sciences, Hopkinton, MA).
For survival experiments, each treatment group consisted of 6 to 15 mice. […]

Where a SMILES comes first, the peptide text is derived from it.

`CC(C)C[C@H](N)C(=O)N[C@@H](CCC(=O)O)C(=O)N[C@@H](CCC(=O)O)C(=O)N[C@@H](CCCCN)C(=O)N[C@@H](CCCCN)C(=O)N[C@@H](Cc1ccc(O)cc1)C(=O)N[C@@H](CC(N)=O)C(=O)N[C@@H](Cc1ccc(O)cc1)C(=O)N[C@H](C(=O)N[C@H](C(=O)N[C@H](C(=O)N[C@@H](CC(=O)O)C(=O)N[C@@H](Cc1c[nH]cn1)C(=O)O)[C@@H](C)O)C(C)C)C(C)C` [Y6-pepvIII] (H-LEEKKYNYVVTDH-OH): in data set [1], the “cytotoxic activity against GL261/wt target cells” value was “no cytotoxic activity”. In addition, in data set [2], the “cytotoxic capacity of T cells of vaccinated mice” value is on record as “increased cytotoxic capacity”.

As to `CC(C)C[C@H](N)C(=O)N[C@@H](CCC(=O)O)C(=O)N[C@@H](CCC(=O)O)C(=O)N[C@@H](CCCCN)C(=O)N[C@@H](CCCCN)C(=O)NCC(=O)N[C@@H](CC(N)=O)C(=O)N[C@@H](Cc1ccc(O)cc1)C(=O)N[C@H](C(=O)N[C@H](C(=O)N[C@H](C(=O)N[C@@H](CC(=O)O)C(=O)N[C@@H](Cc1c[nH]cn1)C(=O)O)[C@@H](C)O)C(C)C)C(C)C` [pepvIII, reference compound], the “cytotoxic activity against GL261/wt target cells” value in data set [1] is “no cytotoxic activity”.

As to LEEKKNYV, the “increase in survival relative to KLH treated control mice” value in data set [3] is reported as 30%.

Take LEEYVVTDH: the “increase in survival relative to KLH treated control mice” value in data set [3] is on record as 54%.

Turning to NYVVTDH, the “increase in survival relative to KLH treated control mice” value in data set [3] stood at 18%.

Source of the values: patent US20240066115A1, “DETERMINATION AND USES OF CD8+ T CELL EPITOPES” (priority 2021, published 2024).
